# Data reported in ChEMBL document CHEMBL1139048, “Synthesis and in vitro antitumoral activity of new 3,5-dicyanopyridine derivatives” (2007).
# Experiments:
# Format in all cases: functional
# A498 = test: Antiproliferative activity against human A498 cells after 48 hrs by SRB protein assay; conditions: A498, 48 h
# NCI-H522 = test: Antiproliferative activity against human NCI-H522 cells after 48 hrs by SRB protein assay; conditions: NCI-H522, 48 h
# SNB-75 = test: Antiproliferative activity against human SNB75 cells after 48 hrs by SRB protein assay; conditions: SNB-75, 48 h
# OVCAR-3 = test: Antiproliferative activity against human OVCAR-3 cells after 48 hrs by SRB protein assay; conditions: OVCAR-3, 48 h
# CAKI-1 = test: Antiproliferative activity against human CAKI1 cells after 48 hrs by SRB protein assay; conditions: CAKI-1, 48 h
# MDA-MB-231 = test: Antiproliferative activity against human MDA-MB-231 cells after 48 hrs by SRB protein assay; conditions: MDA-MB-231, 48 h
# MDA-MB-435 = test: Antiproliferative activity against human MDA-MB-435 cells after 48 hrs by SRB protein assay; conditions: MDA-MB-435, 48 h
# IGROV-1 = test: Antiproliferative activity against human IGROV1 cells after 48 hrs by SRB protein assay; conditions: IGROV-1, 48 h
# SK-OV-3 = test: Antiproliferative activity against human SKOV3 cells after 48 hrs by SRB protein assay; conditions: SK-OV-3, 48 h
# T47D = test: Antiproliferative activity against human T47D cells after 48 hrs by SRB protein assay
# HCC 2998 = test: Antiproliferative activity against human HCC2998 cells after 48 hrs by SRB protein assay; conditions: HCC 2998, 48 h
# MCF7 = test: Antiproliferative activity against human MCF7 cells after 48 hrs by SRB protein assay; conditions: MCF7, 48 h
# K562 = test: Antiproliferative activity against human K562 cells after 48 hrs by SRB protein assay; conditions: K562, 48 h
# HOP-62 = test: Antiproliferative activity against human HOP62 cells after 48 hrs by SRB protein assay; conditions: HOP-62, 48 h
# HCT-116 = test: Antiproliferative activity against human HCT116 cells after 48 hrs by SRB protein assay; conditions: HCT-116, 48 h
# HT-29 = test: Antiproliferative activity against human HT29 cells after 48 hrs by SRB protein assay; conditions: HT-29, 48 h
# U-251 = test: Antiproliferative activity against human U251 cells after 48 hrs by SRB protein assay; conditions: U-251, 48 h
# Malme-3M = test: Antiproliferative activity against human MALME3M cells after 48 hrs by SRB protein assay
# M14 = test: Antiproliferative activity against human M14 cells after 48 hrs by SRB protein assay; conditions: M14, 48 h
# NCI/ADR-RES = test: Antiproliferative activity against human NCI/ADR-RES cells after 48 hrs by SRB protein assay
# COLO 205 = test: Antiproliferative activity against human COLO205 cells after 48 hrs by SRB protein assay; conditions: COLO 205, 48 h
# SR = test: Antiproliferative activity against human SR cells after 48 hrs by SRB protein assay
# HOP-92 = test: Antiproliferative activity against human HOP92 cells after 48 hrs by SRB protein assay; conditions: HOP-92, 48 h
# RXF 393 = test: Antiproliferative activity against human RXF393 cells after 48 hrs by SRB protein assay; conditions: RXF 393, 48 h
# UO-31 = test: Antiproliferative activity against human UO31 cells after 48 hrs by SRB protein assay; conditions: UO-31, 48 h
# NCI-H460 = test: Antiproliferative activity against human NCI-H460 cells after 48 hrs by SRB protein assay; conditions: NCI-H460, 48 h
# CCRF-CEM = test: Antiproliferative activity against human CCRF-CEM cells after 48 hrs by SRB protein assay
# MOLT-4 = test: Antiproliferative activity against human MOLT4 cells after 48 hrs by SRB protein assay; conditions: MOLT-4, 48 h
# RPMI-8226 = test: Antiproliferative activity against human RPMI8226 cells after 48 hrs by SRB protein assay; conditions: RPMI-8226, 48 h
# NCI-H226 = test: Antiproliferative activity against human NCI-H226 cells after 48 hrs by SRB protein assay; conditions: NCI-H226, 48 h
# SF-295 = test: Antiproliferative activity against human SF295 cells after 48 hrs by SRB protein assay; conditions: SF-295, 48 h
# LOX IMVI = test: Antiproliferative activity against human LOXIMVI cells after 48 hrs by SRB protein assay
# SK-MEL-5 = test: Antiproliferative activity against human SK-MEL-5 cells after 48 hrs by SRB protein assay; conditions: SK-MEL-5, 48 h
# UACC-62 = test: Antiproliferative activity against human UACC62 cells after 48 hrs by SRB protein assay; conditions: UACC-62, 48 h
# ACHN = test: Antiproliferative activity against human ACHN cells after 48 hrs by SRB protein assay
# SN12C = test: Antiproliferative activity against human SN12C cells after 48 hrs by SRB protein assay
compound,measurement,setting,value
N#Cc1c(N)nc(N2CCOCC2)c(C#N)c1-c1ccccc1Cl,GI50,A498,2.29 µM
same,GI50,NCI-H522,0.0234 µM
same,TGI,NCI-H522; read-out: Log TGI (converted),2.82 µM
same,GI50,SNB-75,0.417 µM
N#Cc1c(N)nc(N2CCOCC2)c(C#N)c1-c1c(Cl)cccc1Cl,GI50,OVCAR-3,2.4 µM
same,GI50,A498,3.72 µM
same,GI50,CAKI-1,2.24 µM
same,GI50,MDA-MB-231,3.55 µM
same,GI50,MDA-MB-435,1.55 µM
same,GI50,NCI-H522,2.34 µM
same,GI50,IGROV-1,2 µM
same,GI50,SK-OV-3,4.07 µM
same,GI50,T47D,3.39 µM
same,GI50,SNB-75,1.74 µM
same,GI50,HCC 2998,0.0182 µM
same,LC50,HCC 2998,20 µM
same,TGI,HCC 2998; read-out: Log TGI (converted),2.45 µM
same,GI50,MCF7,2.95 µM
same,GI50,K562,3.31 µM
same,GI50,HOP-62,3.55 µM
same,GI50,HCT-116,3.09 µM
same,GI50,HT-29,3.31 µM
same,GI50,U-251,3.89 µM
same,GI50,Malme-3M,3.72 µM
same,GI50,M14,2.45 µM
same,GI50,NCI/ADR-RES,2.34 µM
COc1ccc(-c2c(C#N)c(N)nc(N3CCOCC3)c2C#N)cc1,GI50,A498,7.41 µM
same,GI50,NCI-H522,8.71 µM
same,GI50,COLO 205,2.14 µM
same,GI50,IGROV-1,3.09 µM
same,GI50,SK-OV-3,5.01 µM
same,GI50,T47D,0.832 µM
COc1cc(-c2c(C#N)c(N)nc(N3CCOCC3)c2C#N)cc(OC)c1OC,GI50,SR,13.5 µM
same,GI50,COLO 205,5.62 µM
same,GI50,T47D,15.1 µM
same,GI50,SNB-75,1.62 µM
same,GI50,HCC 2998,5.89 µM
N#Cc1c(N)nc(N2CCOCC2)c(C#N)c1-c1cccnc1,GI50,HCC 2998,8.71 µM
N#Cc1c(N)nc(N2CCOCC2)c(C#N)c1-c1ccc(Cl)cc1,GI50,HOP-92,8.91 µM
same,GI50,A498,8.13 µM
same,GI50,IGROV-1,14.1 µM
same,GI50,SNB-75,14.5 µM
same,GI50,RXF 393,0.479 µM
N#Cc1c(N)nc(N2CCSCC2)c(C#N)c1-c1ccc(O)cc1,GI50,SR,11.2 µM
same,GI50,HOP-92,10 µM
same,GI50,SNB-75,11 µM
same,GI50,HOP-62,12.6 µM
COc1ccc(OC)c(-c2c(C#N)c(N)nc(N3CCOCC3)c2C#N)c1,GI50,SK-OV-3,12 µM
same,GI50,SNB-75,12.9 µM
N#Cc1c(N)nc(N2CCOCC2)c(C#N)c1-c1ccncc1,GI50,A498,18.6 µM
same,GI50,IGROV-1,12.3 µM
same,GI50,T47D,12.6 µM
same,GI50,HCC 2998,13.5 µM
same,GI50,Malme-3M,9.12 µM
N#Cc1c(N)nc(N2CCOCC2)c(C#N)c1-c1cccc(O)c1,GI50,A498,14.8 µM
same,GI50,IGROV-1,18.6 µM
same,GI50,SNB-75,17.4 µM
Cc1ccc(-c2c(C#N)c(N)nc(N3CCOCC3)c2C#N)o1,GI50,SNB-75,2.75 µM
N#Cc1c(N)nc(N2CCOCC2)c(C#N)c1-c1ccc(Cl)cc1Cl,GI50,HOP-92,3.31 µM
same,GI50,A498,2.69 µM
same,GI50,MDA-MB-435,5.75 µM
same,GI50,NCI-H522,4.79 µM
same,GI50,IGROV-1,6.61 µM
same,GI50,SNB-75,6.31 µM
same,GI50,RXF 393,5.62 µM
same,GI50,UO-31,3.24 µM
same,GI50,NCI-H460,9.33 µM
same,GI50,MCF7,8.71 µM
N#Cc1c(NCc2ccccc2)nc(NCc2ccccc2)c(C#N)c1-c1cccc(O)c1,GI50,CCRF-CEM,3.39 µM
same,GI50,MOLT-4,3.31 µM
same,GI50,RPMI-8226,3.09 µM
same,GI50,SR,2.09 µM
same,GI50,HOP-92,2.51 µM
same,GI50,NCI-H226,2.88 µM
same,GI50,SF-295,2.95 µM
same,GI50,LOX IMVI,2.95 µM
same,GI50,SK-MEL-5,1.7 µM
same,GI50,UACC-62,2.09 µM
same,GI50,OVCAR-3,3.31 µM
same,GI50,A498,2 µM
same,GI50,ACHN,2.63 µM
same,GI50,CAKI-1,2.75 µM
same,GI50,SN12C,2.29 µM
same,GI50,MDA-MB-231,2.24 µM
same,GI50,MDA-MB-435,2.88 µM
N#Cc1c(N)nc(N2CCOCC2)c(C#N)c1-c1ccccn1,GI50,NCI-H226,0.513 µM
same,GI50,UACC-62,0.0339 µM
same,GI50,SN12C,0.038 µM
